Assay results published in patent US9981975B2, “Pyrrolotriazine compounds as tam inhibitors” (Incyte Corporation, priority 2016, dated 2018).

Experiments:
Assay type in all cases: biochemical
[1] = target: c-Mer (Homo sapiens (Human), UniProt Q12866); experiment: TAM Enzymatic Assay (HTRF), Mer; settings: 60 min, room temperature
Outline: (§1)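 Reactions ran 60 min at room temperature, protected from light, started by substrate addition to enzyme plus DMSO compound, in pH 7.5 HEPES buffer with 10 mM MgCl2, 1 mM EGTA, 0.01% NP-40, 2 mM DTT.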

[2] = target: Tyro3 (Homo sapiens (Human), UniProt Q06418); experiment: TAM Enzymatic Assay (HTRF), Tyro3; settings: Tyro3, 60 min, room temperature
Chain of Tyro3 (Q06418 41-890): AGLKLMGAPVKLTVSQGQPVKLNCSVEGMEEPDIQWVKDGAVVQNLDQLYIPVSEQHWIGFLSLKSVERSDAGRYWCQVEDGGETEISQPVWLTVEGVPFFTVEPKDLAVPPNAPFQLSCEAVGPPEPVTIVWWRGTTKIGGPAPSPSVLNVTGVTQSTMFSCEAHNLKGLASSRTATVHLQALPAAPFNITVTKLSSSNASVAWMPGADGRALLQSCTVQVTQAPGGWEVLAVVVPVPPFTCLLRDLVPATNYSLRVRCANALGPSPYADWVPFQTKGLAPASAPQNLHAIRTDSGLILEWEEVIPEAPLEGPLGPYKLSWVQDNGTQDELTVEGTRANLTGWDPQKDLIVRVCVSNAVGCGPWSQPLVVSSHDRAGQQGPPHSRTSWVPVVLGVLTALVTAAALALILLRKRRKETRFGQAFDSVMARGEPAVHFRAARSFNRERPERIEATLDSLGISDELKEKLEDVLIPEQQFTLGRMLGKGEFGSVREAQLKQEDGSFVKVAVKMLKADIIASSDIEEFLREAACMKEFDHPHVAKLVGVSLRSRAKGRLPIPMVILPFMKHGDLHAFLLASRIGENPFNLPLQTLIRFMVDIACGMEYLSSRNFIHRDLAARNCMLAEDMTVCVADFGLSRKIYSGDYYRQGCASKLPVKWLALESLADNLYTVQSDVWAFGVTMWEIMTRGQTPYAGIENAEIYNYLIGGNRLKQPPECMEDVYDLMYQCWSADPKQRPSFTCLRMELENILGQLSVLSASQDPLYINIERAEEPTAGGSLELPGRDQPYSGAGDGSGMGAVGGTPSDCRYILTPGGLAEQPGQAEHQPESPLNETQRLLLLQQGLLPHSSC
Outline: as §1

[3] = target: phosphor-Axl (Homo sapiens (Human), UniProt P30530); experiment: TAM Enzymatic Assay (HTRF), Axl; settings: recombinant autophosphorylated Axl, 60 min, room temperature
Chain of phosphor-Axl (P30530 26-894): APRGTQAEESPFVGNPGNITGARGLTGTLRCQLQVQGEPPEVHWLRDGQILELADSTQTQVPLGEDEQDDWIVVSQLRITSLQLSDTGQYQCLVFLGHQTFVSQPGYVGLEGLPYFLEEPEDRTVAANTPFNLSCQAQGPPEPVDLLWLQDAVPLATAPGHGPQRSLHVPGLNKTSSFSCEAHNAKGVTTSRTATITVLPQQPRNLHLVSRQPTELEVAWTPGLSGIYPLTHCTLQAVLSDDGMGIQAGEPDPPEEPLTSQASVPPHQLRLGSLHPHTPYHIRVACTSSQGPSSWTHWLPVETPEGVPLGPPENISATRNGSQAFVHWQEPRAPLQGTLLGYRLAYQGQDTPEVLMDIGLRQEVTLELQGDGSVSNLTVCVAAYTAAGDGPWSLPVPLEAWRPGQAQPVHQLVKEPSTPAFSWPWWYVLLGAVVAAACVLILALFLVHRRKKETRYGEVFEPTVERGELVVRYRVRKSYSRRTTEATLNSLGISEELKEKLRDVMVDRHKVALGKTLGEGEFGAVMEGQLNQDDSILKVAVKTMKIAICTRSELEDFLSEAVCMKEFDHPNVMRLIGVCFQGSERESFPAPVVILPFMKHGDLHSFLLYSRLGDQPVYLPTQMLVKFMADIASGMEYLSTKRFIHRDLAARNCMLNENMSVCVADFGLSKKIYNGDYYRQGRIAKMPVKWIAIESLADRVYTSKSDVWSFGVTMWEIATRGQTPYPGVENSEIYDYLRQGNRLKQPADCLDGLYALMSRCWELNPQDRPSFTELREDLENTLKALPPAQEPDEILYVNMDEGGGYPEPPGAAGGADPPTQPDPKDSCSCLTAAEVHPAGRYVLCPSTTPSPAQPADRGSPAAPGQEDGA

Chain of c-Mer (Q12866 21-999): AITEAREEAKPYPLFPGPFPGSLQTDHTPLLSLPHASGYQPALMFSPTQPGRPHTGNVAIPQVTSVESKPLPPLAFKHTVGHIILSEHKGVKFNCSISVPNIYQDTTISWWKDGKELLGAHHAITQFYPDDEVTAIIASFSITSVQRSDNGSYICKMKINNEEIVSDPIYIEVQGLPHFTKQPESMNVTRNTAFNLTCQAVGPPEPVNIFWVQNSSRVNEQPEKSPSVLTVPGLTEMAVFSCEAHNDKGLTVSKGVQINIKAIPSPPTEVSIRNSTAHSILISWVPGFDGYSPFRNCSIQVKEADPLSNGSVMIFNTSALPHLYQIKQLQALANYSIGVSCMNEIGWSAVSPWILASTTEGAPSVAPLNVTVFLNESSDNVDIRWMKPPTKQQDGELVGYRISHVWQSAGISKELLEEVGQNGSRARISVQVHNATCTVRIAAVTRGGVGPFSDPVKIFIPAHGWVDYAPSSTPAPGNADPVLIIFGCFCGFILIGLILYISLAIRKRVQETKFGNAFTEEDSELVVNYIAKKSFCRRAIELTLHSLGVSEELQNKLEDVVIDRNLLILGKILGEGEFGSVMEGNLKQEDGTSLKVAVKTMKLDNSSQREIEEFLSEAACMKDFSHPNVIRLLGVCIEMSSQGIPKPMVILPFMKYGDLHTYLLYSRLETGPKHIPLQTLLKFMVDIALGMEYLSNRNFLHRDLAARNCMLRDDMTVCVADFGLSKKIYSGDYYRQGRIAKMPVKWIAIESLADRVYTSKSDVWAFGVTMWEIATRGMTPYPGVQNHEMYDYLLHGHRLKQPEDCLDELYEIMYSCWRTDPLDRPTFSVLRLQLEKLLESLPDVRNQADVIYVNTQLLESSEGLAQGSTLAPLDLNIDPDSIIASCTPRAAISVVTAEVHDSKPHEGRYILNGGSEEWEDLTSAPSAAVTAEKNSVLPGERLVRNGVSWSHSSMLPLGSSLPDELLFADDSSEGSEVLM

Row | IC50 [1] | IC50 [2] | IC50 [3] | Structure (SMILES)
1 | ≤ 5 nM | 10 to 100 nM | ≤ 5 nM | CC(C)n1cc(C(=O)Nc2ccc(-c3cc(C4CCN(C(=O)N(C)C)CC4)n4ncnc(N)c34)cc2)c(=O)n(-c2ccc(F)cc2)c1=O [Example 65, N-(4-(4-Amino-7-(1-(dimethylcarbamoyl)piperidin-4-yl)pyrrolo[1,2-f][1,2,4]triazin-5-yl)phenyl)-3-(4-fluorophenyl)-1-isopropyl-2,4-dioxo-1,2,3,4-tetrahydropyrimidine-5-carboxamide]
2 | ≤ 5 nM | > 100 nM | ≤ 5 nM | CC(C)C(=O)N1CCC(c2cc(-c3ccc(NC(=O)c4cn(C5CC5)c(=O)n(-c5ccccc5)c4=O)cc3)c3c(N)ncnn23)CC1 [Example 139, N-(4-(4-Amino-7-(1-isobutyrylpiperidin-4-yl)pyrrolo[2,1-f][1,2,4]triazin-5-yl)phenyl)-1-cyclopropyl-2,4-dioxo-3-phenyl-1,2,3,4-tetrahydropyrimidine-5-carboxamide]
3 | ≤ 5 nM | > 100 nM | ≤ 5 nM | Cc1c(C(F)F)cc(C(=O)Nc2ccc(-c3cc(C4CCN(C(=O)C(C)C)CC4)n4ncnc(N)c34)cc2)c(=O)n1-c1ccccn1 [Example 127, N-(4-(4-Amino-7-(1-isobutyrylpiperidin-4-yl)pyrrolo[2,1-f][1,2,4]triazin-5-yl)phenyl)-5-(difluoromethyl)-6-methyl-2-oxo-2H-[1,2′-bipyridine]-3-carboxamide]
4 | ≤ 5 nM | 10 to 100 nM | ≤ 5 nM | CC(C)n1cc(C(=O)Nc2ccc(-c3cc(C4CCN(C(=O)N(C)C)CC4)n4ncnc(N)c34)cc2)c(=O)n(-c2cccc(F)c2)c1=O [Example 70, N-(4-(4-Amino-7-(1-(dimethylcarbamoyl)piperidin-4-yl)pyrrolo[1,2-f][1,2,4]triazin-5-yl)phenyl)-3-(3-fluorophenyl)-1-isopropyl-2,4-dioxo-1,2,3,4-tetrahydropyrimidine-5-carboxamide]
5 | ≤ 5 nM | 10 to 100 nM | ≤ 5 nM | Cc1c(-c2cscn2)cc(C(=O)Nc2ccc(-c3cc(C4CCN(C(=O)C(C)C)CC4)n4ncnc(N)c34)cc2)c(=O)n1-c1cncc(F)c1 [Example 103, N-(4-(4-Amino-7-(1-isobutyrylpiperidin-4-yl)pyrrolo[2,1-f][1,2,4]triazin-5-yl)phenyl)-5′-fluoro-6-methyl-2-oxo-5-(thiazol-4-yl)-2H-[1,3′-bipyridine]-3-carboxamide]
6 | ≤ 5 nM | > 100 nM | ≤ 5 nM | CCn1cc(C(=O)Nc2ccc(-c3cc(C4CCN(C(=O)N5CCOCC5)CC4)n4ncnc(N)c34)cc2)c(=O)n(-c2ccc(F)cc2)c1=O [Example 68, N-(4-(4-Amino-7-(1-(morpholine-4-carbonyl)piperidin-4-yl)pyrrolo[1,2-f][1,2,4]triazin-5-yl)phenyl)-1-ethyl-3-(4-fluorophenyl)-2,4-dioxo-1,2,3,4-tetrahydropyrimidine-5-carboxamide]
7 | ≤ 5 nM | 10 to 100 nM | ≤ 5 nM | CC(C)C(=O)N1CCC(c2cc(-c3ccc(NC(=O)c4cn(C(C)C)c(=O)n(-c5ccccc5)c4=O)cc3F)c3c(N)ncnn23)CC1 [Example 75, N-(4-(4-Amino-7-(1-isobutyrylpiperidin-4-yl)pyrrolo[1,2-f][1,2,4]triazin-5-yl)-3-fluorophenyl)-1-isopropyl-2,4-dioxo-3-phenyl-1,2,3,4-tetrahydropyrimidine-5-carboxamide]
8 | ≤ 5 nM | > 100 nM | ≤ 5 nM | Cc1c(-c2cccnc2)c(=O)c(C(=O)Nc2ccc(-c3cc(C4CCN(C(=O)C(C)C)CC4)n4ncnc(N)c34)cc2)cn1C1CC1 [Example 147, N-(4-(4-Amino-7-(1-isobutyrylpiperidin-4-yl)pyrrolo[1,2-f][1,2,4]triazin-5-yl)phenyl)-1-cyclopropyl-6-methyl-4-oxo-5-(pyridin-3-yl)-1,4-dihydropyridine-3-carboxamide]
9 | ≤ 5 nM | 10 to 100 nM | ≤ 5 nM | COC(=O)N1CCC(c2cc(-c3ccc(NC(=O)c4cccn(-c5ccccc5)c4=O)cc3F)c3c(N)ncnn23)CC1 [Example 38, Methyl 4-[4-amino-5-(2-fluoro-4-{[(2-oxo-1-phenyl-1,2-dihydropyridin-3-yl)carbonyl]amino}phenyl)pyrrolo[2,1-f][1,2,4]triazin-7-yl]piperidine-1-carboxylate]
10 | ≤ 5 nM | 10 to 100 nM | ≤ 5 nM | COC(=O)N1CCC(c2cc(-c3ccc(NC(=O)c4cccn(-c5ccc(F)cc5)c4=O)cc3F)c3c(N)ncnn23)CC1 [Example 39, Methyl 4-{4-amino-5-[2-fluoro-4-({[1-(4-fluorophenyl)-2-oxo-1,2-dihydropyridin-3-yl]carbonyl}amino)phenyl]pyrrolo[2,1-f][1,2,4]triazin-7-yl}piperidine-1-carboxylate]
11 | ≤ 5 nM | > 100 nM | ≤ 5 nM | Cc1c(-c2ccccn2)c(=O)c(C(=O)Nc2ccc(-c3cc(C4CCN(C(=O)C(C)C)CC4)n4ncnc(N)c34)cc2)cn1C1CC1 [Example 141, N-(4-(4-Amino-7-(1-isobutyrylpiperidin-4-yl)pyrrolo[2,1-f][1,2,4]triazin-5-yl)phenyl)-1′-cyclopropyl-2′-methyl-4′-oxo-1′,4′-dihydro-[2,3′-bipyridine]-5′-carboxamide]
12 | ≤ 5 nM | 10 to 100 nM | ≤ 5 nM | CC(=O)N1CCC(c2cc(-c3ccc(NC(=O)c4cccn(-c5ccccc5)c4=O)cc3)c3c(N)ncnn23)CC1 [Example 24, N-{4-[7-(1-Acetylpiperidin-4-yl)-4-aminopyrrolo[2,1-f][1,2,4]triazin-5-yl]phenyl}-2-oxo-1-phenyl-1,2-dihydropyridine-3-carboxamide]
13 | ≤ 5 nM | 5 to 10 nM | ≤ 5 nM | Nc1ncnn2c(C3CCNCC3)cc(-c3ccc(NC(=O)c4cccn(-c5ccc(F)cc5)c4=O)cc3F)c12 [Example 35, N-[4-(4-Amino-7-piperidin-4-ylpyrrolo[2,1-f][1,2,4]triazin-5-yl)-3-fluorophenyl]-1-(4-fluorophenyl)-2-oxo-1,2-dihydropyridine-3-carboxamide]
14 | ≤ 5 nM | 10 to 100 nM | ≤ 5 nM | CC(C)C(=O)N1CCC(c2cc(-c3ccc(NC(=O)c4cn(C(C)C)c(=O)n(-c5ccccn5)c4=O)cc3)c3c(N)ncnn23)CC1 [Example 83, N-(4-(4-Amino-7-(1-isobutyrylpiperidin-4-yl)pyrrolo[1,2-f][1,2,4]triazin-5-yl)phenyl)-1-isopropyl-2,4-dioxo-3-(pyridin-2-yl)-1,2,3,4-tetrahydropyrimidine-5-carboxamide]
15 | ≤ 5 nM | > 100 nM | ≤ 5 nM | CC(C)C(=O)N1CCC(c2cc(-c3ccc(NC(=O)c4cn(C(C)C)c(=O)n(-c5cnn(C)c5)c4=O)cc3)c3c(N)ncnn23)CC1 [Example 87, N-(4-(4-Amino-7-(1-isobutyrylpiperidin-4-yl)pyrrolo[2,1-f][1,2,4]triazin-5-yl)phenyl)-1-isopropyl-3-(1-methyl-1H-pyrazol-4-yl)-2,4-dioxo-1,2,3,4-tetrahydropyrimidine-5-carboxamide]
16 | > 100 nM | > 100 nM | > 100 nM | CCc1cc(-c2ccc(NC(=O)c3cccn([C@H](CC)CO)c3=O)cc2)c2c(N)ncnn12 [Example 4, N-[4-(4-Amino-7-ethylpyrrolo[2,1-f][1,2,4]triazin-5-yl)phenyl]-1-[(1R)-1-(hydroxymethyl)propyl]-2-oxo-1,2-dihydropyridine-3-carboxamide]
